Numbering of substitutions follows the chain as printed. Residues, ends and D or L forms follow the SMILES beside them. *: point of attachment. X1 = CN(CCCC(=O)NCc1ccc(COc2nc(N)nc3[nH]c(CCCNC(=O)CN4C(=O)C[C@H](*)C4=O)nc23)cc1)C(=O)c1ccccc1-c1c2ccc(=N)c(S(=O)(=O)O)c-2oc2c(S(=O)(=O)O)c(N)ccc12

Series [1] addresses T1, wild type hAGT (Homo sapiens, UniProt P16455).
T1 sequence (P16455 1-207): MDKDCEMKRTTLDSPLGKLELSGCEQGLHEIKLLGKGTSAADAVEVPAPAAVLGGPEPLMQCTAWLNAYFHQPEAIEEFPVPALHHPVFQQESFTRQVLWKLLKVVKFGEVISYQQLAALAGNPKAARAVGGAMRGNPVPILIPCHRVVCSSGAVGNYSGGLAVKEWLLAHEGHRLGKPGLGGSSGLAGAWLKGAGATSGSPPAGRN
The conditions noted are these: known values; cited from earlier work.

The target of series [2] is T2, AGT21 (AGT mutant) (Homo sapiens, UniProt P16455, A127T/C150N/C62A/K125A/N157G/Q115S/Q116H/R128A/R135S/S151I/S152N/S159E).
T2 construct: and truncation at 182 is prepared according to the same method; GST (N); made in house; host or cells: E. coli BL21
T2 sequence (P16455 1-182 C62A/Q115S/Q116H/K125A/A127T/R128A/R135S/C150N/S151I/S152N/N157G/S159E): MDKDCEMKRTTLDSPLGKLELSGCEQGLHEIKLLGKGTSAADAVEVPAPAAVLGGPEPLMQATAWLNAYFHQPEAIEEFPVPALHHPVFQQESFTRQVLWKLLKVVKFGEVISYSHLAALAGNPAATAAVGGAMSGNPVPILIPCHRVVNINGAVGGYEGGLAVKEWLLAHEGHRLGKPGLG
Briefly: Fluorescence-appearance assay and reactivity comparisons. Type of series: biochemical. The conditions noted are these: for reaction rate relative to the compound unsubstituted at C^8/N^9 / reaction rate relative to the corresponding N^9-substituted compound: AGT21; for reaction rate relative to the compound unsubstituted at C^8/N^9: comparator BG-TMR, BG-Atto488 or BG-FL; for reaction rate relative to the corresponding N^9-substituted compound: comparator compound 35, 27 or 29. The method, then:
A third AGT mutant (“AGT21”) related to AGTM and containing the mutations Cys62Ala, Gln115Ser, Gln116His, Lys125Ala, Ala127Thr, Arg128Ala, Arg135Ser, Cys150Asn, Ser15111e, Ser152Asn, Asn157Gly, Ser159G1u, and truncation at 182 is prepared according to the same method.
In a further assay, purified protein of AGT mutants AGTM and AGT21 (Example 47) at a protein concentration of 10 μM are incubated with 100 nM N-[4-(2-Amino-9-(3-QSY9-aminopropyl)-purin-6-yloxymethyl)-benzyl]-tetramethylrhodamine-5(6)-carboxamide (35, N^9-QSY9-BG-TMR, Example 19) in a buffer containing 100 mM NaCl, 50 mM Tris, pH 8.0, 0.1% Tween, 1 mM DTT, at room temperature. The fluorescence intensity (531 nm excitation/595 nm emission) is followed using a Victor2 microplate reader (Perkin Elmer).
(§1) Further reactivity comparisons gave the following results: […]

Series [3] has as its target T3, AGTM (AGT mutant) (Homo sapiens, UniProt P16455, A127T/C150N/C62A/G131K/G132T/K125A/M134L/N157G/Q115S/Q116H/R128A/R135S/S151I/S152N/S159E).
T3 construct: a truncation after codon 182 into the mutant AGT gene; GST (N); made in house; host or cells: E. coli BL21
T3 sequence (P16455 1-182 C62A/Q115S/Q116H/K125A/A127T/R128A/G131K/G132T/M134L/R135S/C150N/S151I/S152N/N157G/S159E): T2 sequence (P16455 1-182 C62A/Q115S/Q116H/K125A/A127T/R128A/R135S/C150N/S151I/S152N/N157G/S159E) with G131K, G132T, M134L
The series is described as above. Type of series: biochemical. The conditions noted are these: for reaction rate relative to the compound unsubstituted at C^8/N^9 / reaction rate relative to the corresponding N^9-substituted compound: AGTM; for reaction rate relative to the compound unsubstituted at C^8/N^9: comparator BG-TMR, BG-Atto488 or BG-FL; for reaction rate relative to the corresponding N^9-substituted compound: comparator compound 35, 27 or 29.
Description: A second AGT mutant (“AGTM”) containing the mutations Cys62Ala, Gln115Ser, Gln116His, Lys125Ala, Ala127Thr, Arg128Ala, Gly131Lys, Gly132Thr, Met134Leu, Arg135Ser, Cys150Asn, Ser15111e, Ser152Asn, Asn157Gly, Ser159G1u, and truncation at 182 is derived from the mentioned above AGT mutant by subsequent introduction of further mutations and a truncation after codon 182 into the mutant AGT gene. Subsequent PCR amplifications gives rise to the further mutated gene that is subcloned into pGEX2T as described for the first mutant. The GST-fusion protein is expressed and purified as well.
In a further assay, purified protein of AGT mutants AGTM and AGT21 (Example 47) at a protein concentration of 10 μM are incubated with 100 nM N-[4-(2-Amino-9-(3-QSY9-aminopropyl)-purin-6-yloxymethyl)-benzyl]-tetramethylrhodamine-5(6)-carboxamide (35, N^9-QSY9-BG-TMR, Example 19) in a buffer containing 100 mM NaCl, 50 mM Tris, pH 8.0, 0.1% Tween, 1 mM DTT, at room temperature. […]
as §1

Series [4] concerns the target T4, AGT26-CaaX fusion protein in CHO cells deficient in endogenous wildtype AGT (Homo sapiens, UniProt P16455, A127T/C150S/C62A/G131K/G132T/K125A/M134L/N157G/R128A/R135S/S159E).
T4 construct: and truncation at 182 is also prepared according to the same method; expressed in transfected cells
T4 sequence (P16455 1-182 C62A/K125A/A127T/R128A/G131K/G132T/M134L/R135S/C150S/N157G/S159E): T2 sequence (P16455 1-182 C62A/Q115S/Q116H/K125A/A127T/R128A/R135S/C150N/S151I/S152N/N157G/S159E) with S115Q, H116Q, G131K, G132T, M134L, N150S, I151S, N152S
Type of series: cell-based. The protocol:
A fourth AGT mutant (“AGT26”) related to AGTM and containing the mutations Cys62Ala, Lys125Ala, Ala127Thr, Arg128Ala, Gly131Lys, Gly132Thr, Met134Leu, Arg135Ser, Cys150Ser, Asn157Gly, Ser159G1u, and truncation at 182 is also prepared according to the same method.
A vector for a fusion of AGT26 and the CaaX-farnesylation signal is transfected into CHO cells deficient in endogenous wildtype AGT. Stable transfectants are selected under geneticine treatment. For that purpose the gene of AGT26 is cloned into pCMV-Script (Stratagene) followed on its C-terminus by the CaaX-box sequence encoded in the pECP-F (Clontech). The final protein sequence (position 690-1271) yields a single polypeptide with 194 amino acids. […] All imaging is done with an inverted Zeiss fluorescence microscope Axiovert 40 CFL with filter sets for tetramethylrhodamine and for fluorescein.

Where [5] appears, read: fluorescence 490 nm excitation / 535 nm emission.
Where [6] appears, read: 10 μM protein, 100 nM substrate, over 1 hour at 25° C.

Take `Nc1nc(OCc2ccccc2)c2ncn(C3C[C@H](O)[C@@H](CO)O3)c2n1` (stereo partly shown) [N^9-desoxyribosyl-O^6-benzylguanine]: the “rate constant of the reaction with wild type hAGT” value in series [1] was 340 s^−1M^−1.

Consider `CN(CCCC(=O)NCc1ccc(COc2nc(N)nc3[nH]c(CCCNC(=O)c4ccc(/N=N/c5ccc(N(C)C)cc5)cc4)nc23)cc1)C(=O)c1ccccc1-c1c2ccc(=N)c(S(=O)(=O)O)c-2oc2c(S(=O)(=O)O)c(N)ccc12` [compound 45, N-[4-(2-Amino-8-(3-(4-[4-dimethylamino-phenyl]-azo-benzoyl)-aminopropyl)-9H-purin-6-yloxymethyl)-benzyl]-ATTO488-amide], for which, in series [2], the “reaction rate relative to the compound unsubstituted at C^8/N^9” value is “two times faster” and the “reaction rate relative to the corresponding N^9-substituted compound” value is “at least four times faster”. Also, the “increase in reactivity compared to BG-Atto488” value in series [2] (setting [5]) is on record as “twofold”. Further, in series [3], the “reaction rate relative to the compound unsubstituted at C^8/N^9” value is recorded as “three times faster” and the “reaction rate relative to the corresponding N^9-substituted compound” value is “at least fifteen times faster”. The “increased reactivity compared to BG-Atto488” value in series [3] (setting [5]) turned out to be 3 fold.

With `CN(CCCC(=O)NCc1ccc(COc2nc(N)nc3[nH]c(CCCNC(=O)CN4C(=O)C[C@H](SC[C@H](NC(=O)[C@H](CCCNC(=N)N)NC(=O)[C@H](CCCNC(=N)N)NC(=O)[C@H](CCCNC(=N)N)NC(=O)[C@H](CCCNC(=N)N)NC(=O)[C@H](CCCNC(=N)N)NC(=O)[C@H](CCCNC(=N)N)NC(=O)[C@H](CCCNC(=N)N)NC(=O)[C@H](CCCNC(=N)N)NC(=O)[C@H](CCCNC(=N)N)NC(=O)[C@@H](N)Cc5ccc(O)cc5)C(=O)O)C4=O)nc23)cc1)C(=O)c1ccccc1-c1c2ccc(=N)c(S(=O)(=O)O)c-2oc2c(S(=O)(=O)O)c(N)ccc12` [compound 60, Conjugate O^6-ATT0488-C^8-TyrArg9Cys] (H-YRRRRRRRRRC(X1)-OH; N-terminus and C-terminus assumed), the cell membrane permeability entry in series [4] is “increased permeability”.

Take “N-[4-(2-Amino-8-(3-(4-[4-dimethylamino-phenyl]-azo-benzoyl)-amino-propyl)-9H-purin-6-yloxymethyl)-benzyl]-fluoresceine-5(6)-carboxamide [compound 44]”: the “reaction rate relative to the compound unsubstituted at C^8/N^9” value in series [2] and in series [3] was “two times faster” in each case. The “reaction rate relative to the corresponding N^9-substituted compound” value was “at least four times faster” in series [2] and “at least ten times faster” in series [3].

For “N-[4-(2-Amino-8-(3-QSY9-aminopropyl)-9H-purin-6-yloxymethyl)-benzyl]-tetramethylrhodamine-5(6)-carboxamide [compound 48]”, in series [2], the “reaction rate relative to the compound unsubstituted at C^8/N^9” value is recorded as “two times faster” and the “reaction rate relative to the corresponding N^9-substituted compound” value is on record as “at least four times faster”. In series [3], the “reaction rate relative to the compound unsubstituted at C^8/N^9” value is reported as “two times faster” and the “reaction rate relative to the corresponding N^9-substituted compound” value is “at least ten times faster”.

Turning to “N-[4-(2-Amino-9-(3-QSY9-aminopropyl)-purin-6-yloxymethyl)-benzyl]-tetramethylrhodamine-5(6)-carboxamide [compound 35]”, the “increase of tetramethylrhodamine fluorescence” value in series [2] (setting [6]) was “about 80%”; in series [3] (setting [6]), “less than five percent”.

As to “O^6-tetramethylrhodamine-benzylguanine [BG-TMR, reference compound]”, the “labeling of cells (fluorescence microscopy)” value in series [4] (5 μM, 30 min, CHO cells with AGT26-CaaX) is “clear signal at the cell membrane”.

These data come from patent US8163479B2, “Specific substrates for O6-alkylguanine-DNA alkyltransferase” (Ecole Polytechnique Federale de Lausanne, priority 2004, dated 2012).
